From US8802597B2, “Herbicidal pyrimidines” (E I du Pont de Nemours and Company, priority 2003, dated 2014)

Columns and labels:
Assay in all cases: Test C pre/postemergence
Format in all cases: in vivo
Details in all cases: Preemergence
[1] = test system: woolly cupgrass (Eriochloa villosa)
Text: (§1) Seeds or nutlets of plant species selected from bermudagrass (Cynodon dactylon), Surinam grass (Brachiaria decumbens), cocklebur (Xanthium strumarium), corn (Zea mays), crabgrass (Digitaria sanguinalis), woolly cupgrass (Eriochloa villosa), giant foxtail (Setaria faberii), goosegrass (Eleusine indica), johnsongrass (Sorghum halepense), kochia (Kochia scoparia), lambsquarters (Chenopodium album), morningglory (Ipomoea coccinea), eastern black nightshade (Solanum ptycanthum), yellow nutsedge (Cyperus esculentus), pigweed (Amaranthus retroflexus), common ragweed (Ambrosia elatior), soybean (Glycine max), common (oilseed) sunflower (Helianthus annuus), and velvetleaf (Abutilon theophrasti) were planted and treated preemergence with test chemicals formulated in a non-phytotoxic solvent mixture which included a surfactant.
(§2) At the same time, plants selected from these crop and weed species and also winter barley (Hordeum vulgare), blackgrass (Alopecurus myosuroides), canarygrass (Phalaris minor), chickweed (Stellaria media), downy brome (Bromus tectorum), green foxtail (Setaria viridis), Italian ryegrass (Lolium multiflorum), wheat (Triticum aestivum), wild oat (Avena fatua) and windgrass (Apera spica-venti) were treated with postemergence applications of some of the test chemicals formulated in the same manner. Plants ranged in height from 2 to 18 cm (1- to 4-leaf stage) for postemergence treatments. Plant species in the flooded paddy test consisted of rice (Oryza sativa), umbrella sedge (Cyperus difformis), duck salad (Heteranthera limosa) and barnyardgrass (Echinochloa crus-galli) grown to the 2-leaf stage for testing. Treated plants and controls were maintained in a greenhouse for 12 to 14 days, after which time all species were compared to controls and visually evaluated. Plant response ratings, summarized in Table C, are based on a scale of 0 to 100 where 0 is no effect and 100 is complete control. A dash (-) response means no test result.

[2] = test system: giant foxtail (Setaria faberii)
Text: as §1, §2

[3] = test system: pigweed (Amaranthus retroflexus)
Text: as §1, §2

kochia (Kochia scoparia) = test system: kochia (Kochia scoparia)
Text: as §1, §2

[4] = test system: morningglory (Ipomoea coccinea)
Text: as §1, §2

[5] = test system: common ragweed (Ambrosia elatior)
Text: as §1, §2

[6] = test system: johnsongrass (Sorghum halepense)
Text: as §1, §2

[7] = test system: Surinam grass (Brachiaria decumbens)
Text: as §1, §2

[8] = test system: common (oilseed) sunflower (Helianthus annuus)
Text: as §1, §2

[9] = test system: yellow nutsedge (Cyperus esculentus)
Text: as §1, §2

soybean (Glycine max) = test system: soybean (Glycine max)
Text: as §1, §2

[10] = 62 g ai/ha, scale 0 to 100, 0 no effect, 100 complete control
[11] = 16 g ai/ha, scale 0 to 100, 0 no effect, 100 complete control
[12] = 31 g ai/ha, scale 0 to 100, 0 no effect, 100 complete control

SMILES: CCOC(=O)Cc1nc(C2CC2)nc(N=CN(C)C)c1Br [Compound 33]
- Plant response rating, Cupgrass, Woolly [1, 10]: 0
- Plant response rating, Cupgrass, Woolly ([1]; 125 g ai/ha, scale 0 to 100): 0
- Plant response rating, Cupgrass, Woolly ([1]; 250 g ai/ha, scale 0 to 100): 0
- Plant response rating, Cupgrass, Woolly ([1]; 500 g ai/ha, scale 0 to 100): 0
- Plant response rating, Foxtail, Giant [2, 10]: 0
- Plant response rating, Foxtail, Giant ([2]; 125 g ai/ha, scale 0 to 100): 10
- Plant response rating, Foxtail, Giant ([2]; 250 g ai/ha, scale 0 to 100): 50
- Plant response rating, Foxtail, Giant ([2]; 500 g ai/ha, scale 0 to 100): 50
- Plant response rating, Pigweed [3, 10]: 85
- Plant response rating, Pigweed ([3]; 125 g ai/ha, scale 0 to 100): 90
- Plant response rating, Pigweed ([3]; 250 g ai/ha, scale 0 to 100): 90
- Plant response rating, Pigweed ([3]; 500 g ai/ha, scale 0 to 100): 90
- Plant response rating, Kochia (kochia (Kochia scoparia); 250 g ai/ha, scale 0 to 100): 50
- Plant response rating, Kochia (kochia (Kochia scoparia); 500 g ai/ha, scale 0 to 100): 50
- Plant response rating, Morningglory [4, 10]: 0
- Plant response rating, Morningglory ([4]; 125 g ai/ha, scale 0 to 100): 85
- Plant response rating, Morningglory ([4]; 250 g ai/ha, scale 0 to 100): 90
- Plant response rating, Morningglory ([4]; 500 g ai/ha, scale 0 to 100): 95
- Plant response rating, Ragweed [5, 10]: 0
- Plant response rating, Ragweed ([5]; 125 g ai/ha, scale 0 to 100): 20
- Plant response rating, Ragweed ([5]; 250 g ai/ha, scale 0 to 100): 70
- Plant response rating, Ragweed ([5]; 500 g ai/ha, scale 0 to 100): 90
- Plant response rating, Johnsongrass [6, 10]: 0
- Plant response rating, Johnsongrass ([6]; 125 g ai/ha, scale 0 to 100): 5
- Plant response rating, Johnsongrass ([6]; 250 g ai/ha, scale 0 to 100): 10
- Plant response rating, Johnsongrass ([6]; 500 g ai/ha, scale 0 to 100): 40
- Plant response rating, Surinam Grass [7, 10]: 0
- Plant response rating, Surinam Grass ([7]; 125 g ai/ha, scale 0 to 100): 0
- Plant response rating, Surinam Grass ([7]; 250 g ai/ha, scale 0 to 100): 0
- Plant response rating, Surinam Grass ([7]; 500 g ai/ha, scale 0 to 100): 10
- Plant response rating, Sunflower [8, 10]: 0
- Plant response rating, Sunflower ([8]; 125 g ai/ha, scale 0 to 100): 70
- Plant response rating, Sunflower ([8]; 250 g ai/ha, scale 0 to 100): 80
- Plant response rating, Sunflower ([8]; 500 g ai/ha, scale 0 to 100): 90
- Plant response rating, Nutsedge, Yellow [9, 10]: 0
- Plant response rating, Nutsedge, Yellow ([9]; 125 g ai/ha, scale 0 to 100): 0
- Plant response rating, Nutsedge, Yellow ([9]; 250 g ai/ha, scale 0 to 100): 0
- Plant response rating, Nutsedge, Yellow ([9]; 500 g ai/ha, scale 0 to 100): 0
- Plant response rating, Soybean (soybean (Glycine max); [10]): 0
- Plant response rating, Soybean (soybean (Glycine max); 125 g ai/ha, scale 0 to 100): 30
- Plant response rating, Soybean (soybean (Glycine max); 250 g ai/ha, scale 0 to 100): 80
- Plant response rating, Soybean (soybean (Glycine max); 500 g ai/ha, scale 0 to 100): 90

SMILES: CCCOC(=O)c1nc(C2CC2)nc(N)c1Cl [Compound 75]
- Plant response rating, Cupgrass, Woolly [1, 11]: 0
- Plant response rating, Cupgrass, Woolly [1, 12]: 0
- Plant response rating, Cupgrass, Woolly [1, 10]: 60
- Plant response rating, Cupgrass, Woolly ([1]; 125 g ai/ha, scale 0 to 100): 60
- Plant response rating, Foxtail, Giant [2, 11]: 0
- Plant response rating, Foxtail, Giant [2, 12]: 0
- Plant response rating, Foxtail, Giant [2, 10]: 0
- Plant response rating, Foxtail, Giant ([2]; 125 g ai/ha, scale 0 to 100): 10
- Plant response rating, Pigweed [3, 11]: 70
- Plant response rating, Pigweed [3, 12]: 75
- Plant response rating, Pigweed [3, 10]: 80
- Plant response rating, Kochia (kochia (Kochia scoparia); [11]): 70
- Plant response rating, Kochia (kochia (Kochia scoparia); [12]): 80
- Plant response rating, Kochia (kochia (Kochia scoparia); [10]): 100
- Plant response rating, Kochia (kochia (Kochia scoparia); 125 g ai/ha, scale 0 to 100): 100
- Plant response rating, Morningglory [4, 11]: 50
- Plant response rating, Morningglory [4, 12]: 90
- Plant response rating, Morningglory [4, 10]: 95
- Plant response rating, Morningglory ([4]; 125 g ai/ha, scale 0 to 100): 100
- Plant response rating, Ragweed [5, 11]: 20
- Plant response rating, Ragweed [5, 12]: 70
- Plant response rating, Ragweed [5, 10]: 80
- Plant response rating, Ragweed ([5]; scale 0 to 100, 0 no effect, 100 complete control): 90
- Plant response rating, Johnsongrass [6, 11]: 0
- Plant response rating, Johnsongrass [6, 12]: 0
- Plant response rating, Johnsongrass [6, 10]: 50
- Plant response rating, Johnsongrass ([6]; 125 g ai/ha, scale 0 to 100): 55
- Plant response rating, Surinam Grass [7, 11]: 0
- Plant response rating, Surinam Grass [7, 12]: 0
- Plant response rating, Surinam Grass [7, 10]: 55
- Plant response rating, Sunflower [8, 11]: 50
- Plant response rating, Sunflower [8, 12]: 70
- Plant response rating, Sunflower [8, 10]: 100
- Plant response rating, Nutsedge, Yellow [9, 11]: 0
- Plant response rating, Nutsedge, Yellow [9, 12]: 0
- Plant response rating, Nutsedge, Yellow [9, 10]: 0
- Plant response rating, Soybean (soybean (Glycine max); [11]): 55
- Plant response rating, Soybean (soybean (Glycine max); [12]): 60
- Plant response rating, Soybean (soybean (Glycine max); [10]): 100

SMILES: COC(=O)Cc1nc(C2CC2)nc(N)c1Br [Compound 13]
- Plant response rating, Cupgrass, Woolly [1, 12]: 0
- Plant response rating, Cupgrass, Woolly [1, 10]: 0
- Plant response rating, Cupgrass, Woolly ([1]; 125 g ai/ha, scale 0 to 100): 0
- Plant response rating, Cupgrass, Woolly ([1]; 250 g ai/ha, scale 0 to 100): 0
- Plant response rating, Foxtail, Giant [2, 12]: 0
- Plant response rating, Foxtail, Giant [2, 10]: 0
- Plant response rating, Foxtail, Giant ([2]; 125 g ai/ha, scale 0 to 100): 0
- Plant response rating, Foxtail, Giant ([2]; 250 g ai/ha, scale 0 to 100): 5
- Plant response rating, Pigweed [3, 12]: 50
- Plant response rating, Pigweed [3, 10]: 60
- Plant response rating, Pigweed ([3]; 125 g ai/ha, scale 0 to 100): 85
- Plant response rating, Pigweed ([3]; 250 g ai/ha, scale 0 to 100): 90
- Plant response rating, Kochia (kochia (Kochia scoparia); [12]): 45
- Plant response rating, Kochia (kochia (Kochia scoparia); [10]): 60
- Plant response rating, Kochia (kochia (Kochia scoparia); 125 g ai/ha, scale 0 to 100): 80
- Plant response rating, Kochia (kochia (Kochia scoparia); 250 g ai/ha, scale 0 to 100): 85
- Plant response rating, Morningglory [4, 12]: 60
- Plant response rating, Morningglory [4, 10]: 65
- Plant response rating, Morningglory ([4]; 125 g ai/ha, scale 0 to 100): 85
- Plant response rating, Morningglory ([4]; 250 g ai/ha, scale 0 to 100): 90
- Plant response rating, Ragweed [5, 12]: 45
- Plant response rating, Ragweed [5, 10]: 60
- Plant response rating, Ragweed ([5]; 125 g ai/ha, scale 0 to 100): 70
- Plant response rating, Ragweed ([5]; 250 g ai/ha, scale 0 to 100): 85
- Plant response rating, Johnsongrass [6, 12]: 0
- Plant response rating, Johnsongrass [6, 10]: 0
- Plant response rating, Johnsongrass ([6]; 125 g ai/ha, scale 0 to 100): 5
- Plant response rating, Johnsongrass ([6]; 250 g ai/ha, scale 0 to 100): 45
- Plant response rating, Surinam Grass [7, 12]: 0
- Plant response rating, Surinam Grass [7, 10]: 0
- Plant response rating, Surinam Grass ([7]; 125 g ai/ha, scale 0 to 100): 0
- Plant response rating, Surinam Grass ([7]; 250 g ai/ha, scale 0 to 100): 10
- Plant response rating, Sunflower [8, 12]: 5
- Plant response rating, Sunflower [8, 10]: 50
- Plant response rating, Sunflower ([8]; 125 g ai/ha, scale 0 to 100): 60
- Plant response rating, Sunflower ([8]; 250 g ai/ha, scale 0 to 100): 90
- Plant response rating, Nutsedge, Yellow [9, 12]: 0
- Plant response rating, Nutsedge, Yellow [9, 10]: 0
- Plant response rating, Nutsedge, Yellow ([9]; 125 g ai/ha, scale 0 to 100): 0
- Plant response rating, Nutsedge, Yellow ([9]; 250 g ai/ha, scale 0 to 100): 0
- Plant response rating, Soybean (soybean (Glycine max); [12]): 0
- Plant response rating, Soybean (soybean (Glycine max); [10]): 60
- Plant response rating, Soybean (soybean (Glycine max); 125 g ai/ha, scale 0 to 100): 90
- Plant response rating, Soybean (soybean (Glycine max); 250 g ai/ha, scale 0 to 100): 90
